Data published in PubChem BioAssay (NCI).
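96-well plates; 48 h exposure; 5 concentrations. Endpoints by linear interpolation between flanking doses. Not reached: highest tested concentration assigned. GI50: concentration for 50% inhibition of growth. Definition used: TGI = concentration required for complete inhibition of growth.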

Legend:
Assay in all cases: NCI tumour cell line growth inhibition, 48 h
EKVX NSCLC = test system: EKVX NSCLC
HOP-92 NSCLC = test system: HOP-92 NSCLC
MOLT-4 leukemia = test system: MOLT-4 leukemia
NCI-H460 lung = test system: NCI-H460 lung
RPMI-8226 leukemia = test system: RPMI-8226 leukemia
SF-539 CNS = test system: SF-539 CNS
SK-MEL-28 melanoma = test system: SK-MEL-28 melanoma
SW-620 colon = test system: SW-620 colon
UACC-257 melanoma = test system: UACC-257 melanoma
UACC-62 melanoma = test system: UACC-62 melanoma

| Compound | GI50 (EKVX NSCLC) | TGI (EKVX NSCLC) | GI50 (HOP-92 NSCLC) | TGI (HOP-92 NSCLC) | GI50 (MOLT-4 leukemia) | TGI (MOLT-4 leukemia) | GI50 (NCI-H460 lung) | TGI (NCI-H460 lung) | GI50 (RPMI-8226 leukemia) | TGI (RPMI-8226 leukemia) | GI50 (SF-539 CNS) | TGI (SF-539 CNS) | GI50 (SK-MEL-28 melanoma) | TGI (SK-MEL-28 melanoma) | GI50 (SW-620 colon) | TGI (SW-620 colon) | GI50 (UACC-257 melanoma) | TGI (UACC-257 melanoma) | GI50 (UACC-62 melanoma) | TGI (UACC-62 melanoma) |
| --- | --- | --- | --- | --- | --- | --- | --- | --- | --- | --- | --- | --- | --- | --- | --- | --- | --- | --- | --- | --- |
| CN(C)C(=O)O[C@H]1CN[C@H](C#Cc2cc3ncnc(Nc4ccc(OCc5cccc(F)c5)c(Cl)c4)c3s2)C1 | 1.77 µM | > 23 µM | 1.77 µM | 19.4 µM | 4.53 µM | > 25 µM | 7.25 µM | > 25 µM | 4.63 µM | 15.2 µM | 8.16 µM | > 25 µM | > 25 µM | > 25 µM | > 25 µM | > 25 µM | > 25 µM | > 25 µM | > 25 µM | > 25 µM |
| CCOC(=O)/C(C#N)=C\C=C(/Cl)c1ccc(Cl)cc1 | 26.5 µM | 63.9 µM | 17.5 µM | 47.2 µM | 8.75 µM | > 100 µM | 31 µM | > 77.5 µM | 3.71 µM | 29.8 µM | 11.3 µM | 33.9 µM | 15.5 µM | 32.3 µM | 5.94 µM | 26.3 µM | 17.6 µM | 32.6 µM | 18.7 µM | 38.9 µM |
| C=C1C(=O)O[C@H]2[C@H]1CC/C(COC(=O)NCC(C)c1ccc(CC(C)C)cc1)=C\CC[C@@]1(C)O[C@@H]21 (stereo partly drawn) | 3.85 µM | 7.95 µM | 0.545 µM | 1.5 µM | 0.974 µM | 3.05 µM | 4.69 µM | 10 µM | 0.681 µM | 1.9 µM | 3.71 µM | 7.71 µM | 1.6 µM | 5.52 µM | 0.751 µM | 1.79 µM | 5.01 µM | 9.89 µM | 0.751 µM | 2.35 µM |
| O=C1OCC2=C1C(c1ccccc1)c1cc3c(cc1N2CCO)OCO3 (stereo not drawn) | 14 µM | > 50 µM | 13.9 µM | > 50 µM | > 50 µM | > 50 µM | 2.07 µM | > 50 µM | 3.09 µM | > 50 µM | 2.41 µM | > 50 µM | > 50 µM | > 50 µM | 2.18 µM | > 50 µM | > 50 µM | > 50 µM | 2.53 µM | > 50 µM |
| CCNC(=O)COc1ccc(Cl)cc1Cl |  | > 100 µM |  | > 100 µM |  | > 100 µM |  | > 100 µM |  | > 100 µM |  | > 100 µM |  | > 100 µM |  | > 100 µM |  | > 100 µM |  |  |
| CC(C)CCC1(CCN)C(=O)NC(=O)NC1=O |  | > 100 µM |  | > 100 µM |  | 72.2 µM |  | > 100 µM |  | > 100 µM |  | > 100 µM |  | > 100 µM |  | > 100 µM |  | > 100 µM |  | > 100 µM |
| c1c[nH]c(CN2CCOCC2)n1 |  | > 100 µM |  | > 100 µM |  | > 100 µM |  | > 100 µM |  | > 100 µM |  | > 100 µM |  | > 100 µM |  | > 100 µM |  | > 100 µM |  | > 100 µM |
| CN1/C(=C\C=C\C2=[N+](C)c3ccccc3C2(C)C)C(C)(C)c2ccccc21 | 0.0297 µM | 7.3 µM | 0.128 µM | 0.58 µM | 0.146 µM | 1.87 µM | 0.0541 µM | 0.922 µM | 0.0119 µM | 1.33 µM | 0.224 µM | 5.91 µM | 0.412 µM | 2.84 µM | 0.136 µM | 3.79 µM | 0.0386 µM | 0.452 µM | 0.124 µM | 1.45 µM |
| O=[N+]([O-])c1ccc(-c2ccc(-c3csc(Nc4ccccc4)n3)o2)cc1 |  | 33.5 µM |  | 37 µM |  | 46.2 µM |  | > 67 µM |  | > 67.4 µM |  | 33.9 µM |  | 32.2 µM |  | 56.7 µM |  | 33.3 µM |  | 37.2 µM |
| Cc1ccc(-c2nc3nc(-c4ccc(F)cc4)nc(N4CCCNCC4)c3o2)cc1 | 1.78 µM | 3.34 µM | 1.32 µM | 2.88 µM | 1.62 µM | 3.47 µM | 1.79 µM | 3.53 µM | 1.85 µM | 4.66 µM | 1.66 µM | 3.04 µM | 1.79 µM | 3.23 µM | 0.742 µM | 2.17 µM | 1.89 µM | 3.65 µM | 1.83 µM | 3.47 µM |
| Cc1cc(I)cc(CN(C)CCCN2CCCC2)c1O | 38.4 µM | > 100 µM | 15.8 µM | 59.1 µM | 16.1 µM | 39.1 µM | 16.9 µM | 38.4 µM | 15.6 µM | 37.5 µM | 15.3 µM | 31 µM | 15.3 µM | 29.9 µM | 15.9 µM | 35.4 µM | 22.7 µM | > 57 µM | 5.47 µM | 13.1 µM |
| COc1ccc2c(c1)/C(=C/c1cc(OC)c(OC)c(OC)c1)C(=O)N2 | 11.6 µM | > 100 µM | 1.43 µM | > 33.9 µM | 0.216 µM | > 100 µM | 0.269 µM | > 100 µM | 0.275 µM | 1.18 µM | 0.74 µM | 19.5 µM | > 100 µM | > 100 µM | 0.175 µM | > 100 µM | 0.615 µM | > 100 µM | 0.37 µM | > 100 µM |
| COc1ccc(/C(=N\NC(=S)NN)C(c2ccc(OC)cc2)C2C(=O)Oc3ccccc32)cc1 (stereo not drawn) | > 100 µM | > 100 µM | > 100 µM | > 100 µM | > 100 µM | > 100 µM | > 100 µM | > 100 µM | > 100 µM | > 100 µM | > 100 µM | > 100 µM |  | > 100 µM | > 100 µM | > 100 µM | > 100 µM | > 100 µM | > 100 µM | > 100 µM |
| CCNC(=O)c1noc(-c2cc(C(C)C)c(O)cc2O)c1-c1ccc(CN2CCOCC2)cc1 | 5.21 µM | > 100 µM | 0.0252 µM | 0.0738 µM | 0.0326 µM | > 100 µM | < 0.0152 µM | 14.6 µM | 0.0428 µM | 23.1 µM | 0.0662 µM | 26.3 µM | 0.055 µM | 22.7 µM | < 0.01 µM | 23.9 µM | 0.0259 µM | 0.159 µM | 0.0333 µM | 4.92 µM |
